Reference: patent US20240299393A1, “SMALL MOLECULE DISRUPTORS OF PROTEIN INTERACTIONS IN HISTONE DEACETYLASE COMPLEXES” (Dana-Farber Cancer Institute, Inc., priority 2021, published 2024)

How the values were obtained:
[1] = tested on: CDKN1A, SOCS3, EGR1 in SK-N-BE(2)-C cells; experiment: RT-qPCR of SIN3 HDAC complex-regulated genes in neuroblastoma cells; type: cell-based, human; conditions: 100 μM for 16 h
Description: The RT-qPCR protocol used in this study was described elsewhere [Choi et al 2012]. Culture, RNA extraction, and compound treatments for neuroblastoma SK-N-BE(2)-C cells are described below. Approximately 1 μg RNA per sample was used for reverse transcription. Using a thermocycler, RNA was denatured in the presence of 0.2 μg 18 mer oligo-dT by heating the plate at 65° C. for 10 min. The plate was then immediately cooled down on ice to anneal oligo-dT on the poly-A tail of mRNA. A master mix of AffinityScript Multiple Temperature Reverses Transcriptase (Agilent, cat #600107) was prepared following the manufacturer's protocol, and mixed with RNA samples previously annealed with the oligo-dT. The plate was incubated at 42° C. for 2 h to generate cDNAs from mRNA templates. The reverse transcriptase was then denatured by heating the plate at 70° C. for 15 min. The resulting cDNA was diluted (1:20) in sterile, ultra pure water (ddH2O), and stored at −20° C. until used for qPCR. To measure gene expression, the diluted cDNA was mixed with 5 μL PowerUp SYBR Green master mix (Applied Biosystems, cat #A25743), and the mix of primers (forward+reverse, see FIG. 31; 0.3 μM final concentration) for a total volume of 10 μL. Two technical replicates were generated per cDNA sample in the 384-well PCR plate (Applied Biosystems, cat #4343370). The plate was tightly sealed with optical adhesive film (Applied Biosystems, cat #4311971). Quantitative PCR was conducted with a QuantStudio real-time PCR system from Applied Biosystems, with the following settings: 50° C./2 min, 95° C./10 min, 96° C./15 s/40 cycles, and 60° C./30 s. Dissociation curves were checked for each PCR product, to assess the specificity of the PCR amplicons.
SK-N-BE(2)-C cells were maintained in cell culture flasks supplemented with 10% Fetal bovine serum (FBS) and penicillin/streptomycin (PS) in Dulbecco's Modified Eagle's Medium (DMEM). The cells were maintained at a log phase in a humidified 5% CO2 incubator at 37° C. For testing the effect of the compounds on gene expression, approximately 0.1 million cells were seeded on each well of 24-well cell culture plates, with 1 mL 10% FBS+PS+DMEM. 24 h after seeding the cells, they were exposed to the compounds or DMSO control for 16 h in a humidified 5% CO2 incubator at 37° C., before harvesting them.
Cells were harvested for RNA extraction using Nucleospin 96 RNA (Macherey-Nagel, cat #740709.4) following manufacturer's protocol. Briefly, supernatant was removed, and the cells were gently washed with 1× phosphate-buffered saline. 300 μL lysis buffer were added to each well of 24 well cell culture plates. Roughly 0.1 million cells were used for harvesting each RNA sample. RNA concentration was measured for all purified RNA samples using a nanodrop spectrophotometer.

[2] = tested on: SK-N-BE(2)-C neuroblastoma cells; experiment: Matrigel cell invasion assay; type: cell-based, human; conditions: FIG. 39A
Description: SK-N-BE(2)C neuroblastoma cells were seeded at 5×10^4 cells per well density in a 24-well plate. Cells were treated for five days with compounds or with DMSO control in Dulbecco's Modified Eagle Medium containing 10% fetal bovine serum, penicillin and streptomycin, in quadruplicate. On Day five, cells were changed to serum-free medium with the same compound concentrations as during the 5-day treatment, and 50,000 cells were seeded on top of a Corning BioCoat Matrigel Invasion Chamber (cat #354480). Medium with 20% FBS was added as chemoattractant to the bottom of the well. Invasion assay was performed per manufacturer instructions. After 48 h, non-invading cells were removed by scrubbing with a cotton tip swab. Cells that remained inside the matrix were stained with 1% crystal violet dye and counted by eye. Percentage of invasive cells was calculated relative to DMSO control.

[3] = tested on: Rpd3-sensitive acid phosphatase activity; experiment: Yeast acid phosphatase plate assay; type: cell-based, S. cerevisiae; conditions: phosphate-rich (high Pi) medium
Description: The acid phosphatase plate assay was implemented as previously described [To et al 1973, Loewith et al 2001], with minor modifications. Cells were grown on high Pi medium (see above) for 2 days, at 30° C. A staining solution containing 2 mg/mL of 1-naphtyl phosphate (Sigma, N5602) and 4 mg/mL fast blue B salt (Sigma, D9805) was then prepared in 50 mM sodium acetate buffer pH 4.0±0.1, and maintained at 50° C. for ˜30 min before being filtered. Meanwhile, a solution of 10 mg/mL (1% weight/volume) ultra pure low melting point (LMP) agarose (Invitrogen, 15517-022) was prepared in 50 mM sodium acetate buffer pH 4.0±0.1, by microwaving the suspension until complete dissolution of the powder. The volume of the agarose solution was checked and readjusted with 50 mM sodium acetate buffer pH 4.0±0.1. The agarose solution was then mixed with the filtered staining solution by vortexing briefly, and the resulting suspension was kept at 50° C. for ˜15 min. The solid agar plate on which cells grew for 2 days were then gently overlaid with the agarose-containing staining solution, allowing its gelification on top of the cells. A red coloring started to appear ˜2 min after covering cells with the solution.

| Compound | effect on expression of CDKN1A, SOCS3 and EGR1 [1] | migration of neuroblastoma cells in the invasion assay [2] | Rpd3-sensitive acid phosphatase activity [3] |
| --- | --- | --- | --- |
| C[C@@H](NC(=O)c1c(O)n2ccccc2nc1=O)c1ccccc1 [E6R, 4-hydroxy-2-oxo-N—((R)-1-phenylethyl)-3,4-dihydro-2H-pyrido[, 2-a]pyrimidine-3-carboxamide] | only perturbed expression of two of the tested downstream genes | significantly reduce | – |
| CC(/C=C/C(=O)NO)=C\[C@@H](C)C(=O)c1ccc(N(C)C)cc1 [TSA, trichostatin A] | derepressed | significantly reduce | induced |
| CC(NC(=O)c1c(O)n2ccccc2nc1=O)c1ccccc1 (racemic) [E6] | – | – | opposite behavior |
